Results on nine compounds are retold here after ChEMBL document CHEMBL2062486, “HIV-1 Integrase Inhibitor-Inspired Antibacterials Targeting Isoprenoid Biosynthesis” (ACS Med Chem Lett, 2012).

pIC50, pKi: −log10 of the molar value. Converted amounts (≈) assume the structure as drawn. The source made the active and inactive calls. The rule behind the calls is not given here.

The target in assay [1] is T1, 4,4'-diapophytoene synthase (Staphylococcus aureus, UniProt A9JQL9).
T1 sequence (A9JQL9 whole entry): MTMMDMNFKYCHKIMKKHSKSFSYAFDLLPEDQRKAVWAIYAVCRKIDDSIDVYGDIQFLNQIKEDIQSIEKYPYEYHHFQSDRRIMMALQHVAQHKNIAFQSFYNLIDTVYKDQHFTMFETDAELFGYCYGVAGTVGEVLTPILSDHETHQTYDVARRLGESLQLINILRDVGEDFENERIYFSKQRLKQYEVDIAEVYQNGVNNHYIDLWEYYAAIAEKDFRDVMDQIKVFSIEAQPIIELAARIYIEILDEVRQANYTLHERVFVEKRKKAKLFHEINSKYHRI
Nature of the assay: Inhibition of Staphylococcus aureus isolate WT CrtM-mediated staphyloxanthin synthesis after 72 hrs by spectrophotometry.

The target in assay [2] is T1, 4,4'-diapophytoene synthase. Nature of the assay: Inhibition of Staphylococcus aureus His6-tagged CrtM expressed in Escherichia coli BL21(DE3) using Farnesyl pyrophosphate as substrate incubated for 30 mins prior to substrate addition by continuous spectrophotometric assay.
In assay [3] the target is T2, Farnesyl pyrophosphate synthase (Homo sapiens) (UniProt P14324).
T2 sequence (whole entry): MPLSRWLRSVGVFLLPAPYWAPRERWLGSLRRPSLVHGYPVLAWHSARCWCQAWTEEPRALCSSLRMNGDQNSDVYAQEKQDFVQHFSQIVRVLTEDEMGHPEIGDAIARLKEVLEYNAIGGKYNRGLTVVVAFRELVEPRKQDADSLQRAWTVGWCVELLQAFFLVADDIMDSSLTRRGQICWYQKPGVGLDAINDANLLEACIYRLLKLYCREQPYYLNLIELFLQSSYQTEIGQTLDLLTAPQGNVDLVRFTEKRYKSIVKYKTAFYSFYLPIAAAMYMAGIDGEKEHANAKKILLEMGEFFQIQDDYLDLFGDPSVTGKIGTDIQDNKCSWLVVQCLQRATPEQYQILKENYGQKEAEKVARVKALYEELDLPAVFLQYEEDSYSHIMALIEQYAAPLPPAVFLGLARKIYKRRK
Nature of the assay: Inhibition of FPPS.

The nature of assay [4]: Inhibition of Escherichia coli UPPS-mediated undecaprenyl pyrophosphate synthesis by continuous spectrophotometric assay.
The nature of assay [5]: Inhibition of Staphylococcus aureus UPPS-mediated undecaprenyl pyrophosphate synthesis by continuous spectrophotometric assay.
In assay [6] the test system is Escherichia coli. Nature of the assay: Antibacterial activity against Escherichia coli DH5alpha. Particulars: DH5[alpha]. The assay is classed as functional, organism-based.
For assay [7], the system named is Listeria monocytogenes. Nature of the assay: Antibacterial activity against Listeria monocytogenes. Format: functional.
Assay [8] has as its system Enterococcus faecium. Nature of the assay: Antibacterial activity against Enterococcus faecium U503. Format: functional.
Assay [9] has as its system Escherichia coli. Nature of the assay: Antibacterial activity against Escherichia coli K12. Particulars: K-12. The assay is classed as functional, organism-based.
For assay [10], the system named is MCF7. Nature of the assay: Cytotoxicity against human MCF7 cells. The assay is classed as cell-based.
The nature of assay [11]: Antibacterial activity against Streptococcus pyogenes M1. Format: functional, Streptococcus pyogenes serotype M1.
For assay [12], the system named is Bacillus anthracis. Nature of the assay: Antibacterial activity against Bacillus anthracis str. Sterne. The assay is classed as functional.
In assay [13] the test system is Staphylococcus aureus. Nature of the assay: Antibacterial activity against methicillin-resistant Staphylococcus aureus USA300. Format: functional.

With `CCCCCCOc1cccc(Cn2ccc(O)c(C(=O)O)c2=O)c1`, the pIC50 (in general, −log10 of the IC50, conventionally taken in molar units) was 4.48 in assay [1], 4.34 in [2] and 4.57 in assay [4]. Also, in assay [2], the pKi (as a rule, the Ki on a negative log10 scale, so that one unit is a factor of ten) was 6.35. In addition, in assay [3], the inhibition entry was “inactive”.
`CCCCCCCCCCOc1cccc(Cn2ccc(O)c(C(=O)O)c2=O)c1`: the pIC50 in assay [2], in assay [5] and in [4] was less than 3.52 in each case. Further, the inhibition result in assay [3] was “inactive”.
For `O=C(CP(=O)(O)O)NCCCc1cccc(Oc2ccccc2)c1`, the inhibition result in assay [3] was “inactive”.
Consider `CCCCCCOc1cccc(CCCNC(=O)/C=C(\O)C(=O)O)c1`, for which the pIC50 in [2] is less than 3.52; in assay [5], 6.12; in assay [4] it was 6.25. Further, in assay [3], the inhibition entry was “inactive”.
For the compound `CCCCCCCCCCOc1cccc(C(=O)/C=C(\O)C(=O)O)c1`, the pIC50 in [2] is 4.17; in assay [5], 6.14; in assay [10], 4.52; in [4], 5.72. The inhibition result in assay [3] is “inactive”. Besides, the result in assay [6] and in assay [9] was inactive. Further, the MIC90 – broadly, an inhibitory concentration at the 90% level, which refers to growth in some studies and to a panel of isolates in others – amounted to 4 mg/L (≈ 11.5 µM) in assay [7], 4 mg/L (≈ 11.5 µM) in [8], 1 mg/L (≈ 2.87 µM) in [11] and 0.5 mg/L (≈ 1.43 µM) in assay [12].
For the compound `CCCCCCCCOc1ccc(C(=O)/C=C(\O)C(=O)O)cc1`, the pIC50 in assay [2] is less than 3.52; in [5], 5.70; in assay [10], 4.52; in assay [4], 6.30. Moreover, the inhibition entry in [3] was “inactive”. Moreover, the outcome in assay [6] and in assay [9] was inactive. In addition, the MIC90 is 4 mg/L (≈ 12.5 µM) in assay [7]; 4 mg/L (≈ 12.5 µM) in [8]; 0.25 mg/L (≈ 0.78 µM) in [13]; 1 mg/L (≈ 3.12 µM) in assay [11]; 0.5 mg/L (≈ 1.56 µM) in assay [12].
Turning to `O=C(/C=C(\O)C(=O)O)NCCCc1cccc(Oc2ccccc2)c1`, the pIC50 in assay [1] is 5.40; in assay [2], 4.62; in [4], 5.66. In assay [2], this compound had a pKi of 6.60. Moreover, the inhibition result in assay [3] was “inactive”.
On to `O=P(O)(O)C(O)(Cc1cccc(-c2cccc3c2oc2ccccc23)c1)P(=O)(O)O`, for which, in assay [4], the negative-log IC50 (pIC50) was 6.52.
On to `O=C(/C=C(\O)C(=O)O)NCCCc1cccc(-c2ccccc2)c1`, for which the pIC50 is 4.62 in assay [2], 5.74 in [5] and 6.62 in assay [4]. Further, the inhibition result in [3] was “inactive”. In [4], this compound had a pKi of 6.92.
